The results in this text go back to publication PMC5869712 (Scientific Reports, 2018).

Experiment [1] concerns DBA/1 mice with collagen-induced arthritis. In words: Collagen-induced arthritis mouse model: clinical score, histology, safety. It counts as in vivo. Conditions: CIA mice; 30 mg/kg; model group 3.8; grades 0-4. The method, then:
The animal protocol was approved by the Animal Care and Use Committee of Sichuan University in China (IACUC number: 20100318). DBA/1 J mice (male, 6 weeks old) were obtained from Jackson Laboratory (Bar Harbor, ME). One day before the start of the experiment, CII solution (2 mg/ml) was prepared with 0.05 M acetic acid and stored at 4 °C. Just before the immunization, equal volumes of IFA and CII were mixed by a homogenizer in a precooled glass bottle in an ice water bath. Arthritis was induced in 8-week old male DBA/1 mice by immunizations with a 1:1 emulsion of bovine type II collagen (Chondrex) and Freund’s complete adjuvant (Sigma-Aldrich) on day 0 and with a 1:1 emulsion of bovine type II collagen in Freund’s incomplete adjuvant (Sigma-Aldrich) on day 21. […] On the day treatment was initiated, the mice were randomly assigned to controls (no collagen injection plus vehicle; […]. Mice were scored daily for signs of arthritis for 33 days. CIA development was inspected three times per week, and the inflammation of the four paws was graded from 0 to 4 (grade 0, paws with no swelling or focal redness; grade 1, paws with swelling of finger joints; grade 2, paws with a mild swelling of the ankle or wrist joints; grade 3, paws with severe inflammation of the entire paw; and grade 4, paws with deformity or ankylosis). Each paw was graded, and the four scores were totalled so that the possible maximum score per mouse was 16.
DBA1/J mice were sacrificed on day 33 after treatment and ankle joints were removed and fixed with 4% paraformaldehyde for more than 48 h. The joints were decalcified in EDTA buffer for 21 days and then embedded in paraffin blocks. Joint sections were stained with H&E or safranin O-fast green. Histological changes were examined under microscope using methods modified from McKew et al.[43] as follows: grade 0 = no abnormal findings; grade 1 = synoviocyte hypertrophy, slight synovial membrane fibrosis, slight-to-mild inflammatory cell infiltrates into the synovial membrane/articular capsule and/or joint space; grade 2 = grade 1 plus mild-to-moderate inflammatory cell infiltrates, pannus formation (if present) minimal with superficial cartilage erosion; grade 3 = grade 2 plus marked inflammatory cell infiltrates and fibrosis, mild-to-severe erosion of the cartilage extending into the subchondral bone; and grade 4 = loss of joint integrity through erosion or destruction with bone remodelling, massive inflammatory cell infiltrates, fibrosis, and ankylosis.

Experiment [2] has as its system cytokine gene transcription in joint tissue of CIA mice. The experiment is described as follows: Cytokine gene expression in joints of CIA mice by RT-PCR. It counts as in vivo, mouse.

Each structure is given as a SMILES string.

Regarding `C[C@@H]1CCN(C(=O)CC#N)C[C@@H]1N(C)c1ncnc2[nH]ccc12` [Tofacitinib, reference compound], the “group mean histological severity score” value in experiment [1] was 1.8. Besides, the IL-10 expression entry in experiment [2] is listed as “significantly increased its expression”.
